Experiment in all cases: inhibition of tumour cell growth, NCI panel, 48 h
Experiment [1] deals with 786-0 renal.
Experiment [2] deals with A498 renal.
Experiment [3] deals with A549 NSCLC.
For experiment [4], the system named is CAKI-1 renal.
Experiment [5] concerns HCT-15 colon.
The test system of experiment [6] is HOP-92 NSCLC.
Experiment [7] relates to HT29 colon.
The test system of experiment [8] is IGROV1 ovarian.
Experiment [9] relates to K-562 leukemia.
The subject of experiment [10] is LOX IMVI melanoma.
The subject of experiment [11] is M14 melanoma.
The test system of experiment [12] is MDA-MB-435.
In experiment [13] the test system is RPMI-8226 leukemia.
For experiment [14], the system named is RXF 393 renal.
For experiment [15], the system named is SK-MEL-28 melanoma.
The test system of experiment [16] is SNB-75 CNS.
For experiment [17], the system named is U251 CNS.
The subject of experiment [18] is UO-31 renal.
The subject of experiment [19] is MCF7 breast.

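Exposure lasted 48 hours, with cells grown in 96-well plates and compounds tested at five concentrations. TGI is the concentration that stops growth completely.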

Turning to `CN(C)/N=C(/CC(O)(C(F)(F)F)C(F)(F)F)c1ccc([N+](=O)[O-])cc1`, the TGI in [1], in [2], in [3], in experiment [4], in experiment [5] and in [6] was above 100 µM in each case. Moreover, the TGI in experiment [7], in experiment [8], in [9], in [10], in experiment [11] and in experiment [12] was above 100 µM in each case. Also, the TGI in experiment [13], in [14], in [15], in experiment [16], in experiment [17] and in [18] was above 100 µM in each case.

`COc1ccc2c(c1)C(=O)Cc1ccccc1CC2`: the TGI in experiment [1], in [2], in experiment [3], in [4], in [5] and in experiment [6] was above 100 µM each time. Besides, the TGI in experiment [7], in experiment [8], in experiment [9], in experiment [10], in experiment [11] and in [13] was above 100 µM each time. The TGI in experiment [14], in experiment [15], in [16], in experiment [17] and in [18] was above 100 µM throughout.

In the case of `Cc1ccc(/C(Cl)=C/C=C(C#N)C#N)cc1`, the TGI in experiment [1] is 3.77 µM; in experiment [3], 56 µM; in [4], 14.4 µM; in experiment [5] it was 4.79 µM; in experiment [8], 16.2 µM; in experiment [9], 19.4 µM. Also, the TGI is 3.82 µM in [10]; 6.37 µM in experiment [11]; above 100 µM in [19]; 6.94 µM in experiment [12]; 7.66 µM in experiment [14]; 5.12 µM in experiment [15]. For the same compound, the TGI is 37.6 µM in [16], 18.4 µM in experiment [17] and above 100 µM in experiment [18].

In the case of `[Cl-].[Rh+3].c1cnc2c(c1)ccc1cccnc12.c1cnc2c(c1)ccc1cccnc12.c1cnc2c(c1)ccc1cccnc12`, the TGI in [1], in experiment [3], in experiment [5], in [6], in [7] and in experiment [8] was above 100 µM throughout. The TGI in experiment [9] was above 100 µM; in experiment [10], above 100 µM; in experiment [11] it was 29 µM; in experiment [16], above 100 µM; in [17], above 100 µM; in experiment [18] it was above 100 µM.

Regarding `O=S(=O)(O)C1=C2Sc3ccccc3N=C2c2ccccc2C1`, the TGI in experiment [1] was found to be 31.4 µM; in [2], 32.8 µM; in experiment [3], 34.3 µM; in experiment [4], 34.7 µM; in experiment [5], 27.3 µM; in experiment [6], 22 µM. The TGI is 40 µM in [7]; 28.1 µM in experiment [8]; 36.1 µM in experiment [9]; 25.5 µM in experiment [10]; 25.5 µM in experiment [11]; 38.6 µM in experiment [13]. Besides, the TGI in experiment [14] is 35.1 µM; in experiment [15] it was 31.4 µM; in [16], 32.5 µM; in [17] it was 25.4 µM; in [18] it was 33.6 µM.

Take `Cc1cccc(C(C)C)c1NC(=O)/C(Cc1c([N+](=O)[O-])cccc1[N+](=O)[O-])=N/NC(=O)CC#N`: the TGI in experiment [1], in [2], in experiment [3], in experiment [4], in experiment [5] and in experiment [6] was above 100 µM in each case. Also, the TGI in [7], in [8], in experiment [9], in experiment [10], in [11] and in [14] was above 100 µM throughout. For the same compound, the TGI in experiment [15], in experiment [16] and in experiment [18] was above 100 µM in each case.

Turning to `OC1(c2ccccc2)C2CCN(CC2)C1CN1CCOCC1` (configuration not stated), the TGI in [1], in experiment [2], in experiment [3], in experiment [4], in experiment [5] and in experiment [7] was above 100 µM each time. For the same compound, the TGI in [8], in experiment [9], in [10], in experiment [11], in experiment [19] and in experiment [12] was above 100 µM each time. The TGI in [13], in experiment [14], in [15], in experiment [16], in experiment [17] and in experiment [18] was above 100 µM throughout.

Source of the values: PubChem BioAssay (NCI).
